In US20090022803A1, “Oral Formulations For Delivery of Catecholic Butanes Including Ndga Compounds” (priority 2005, published 2009):
Where two headings read alike, the source gives them in different places.

Type: physicochemical
Procedure: A 10 mL solution of M4N at a concentration of about 10 mg/mL in 40% BP-β-CD was made as follows. About 10 mL of the 40% HP-β-CD solution were added to a glass beaker containing a stir bar. The beaker was placed on a magnetic plate and the stir bar was set to stir at medium speed. About […] of M4N were slowly added to the 40% HP-β-CD in the center of the beaker with the aid of a spatula. The M4N/40% HP-β-CD mixture was stirred for 2 hr or until all M4N was uniformly suspended without any clumps being present. The M4N/40% HP-β-CD mixture was optionally heated at 80° C. for about 30 min. (or longer if a larger volume of solution was desired, for example, 1 hr at 80° C. for 100 mL of the M4N/HP-β-CD mixture), or longer as needed to ensure complete dissolution of M4N. […] The final M4N/40% HP-β-CD solution was stored at room temperature and was kept protected from light. This process may be scaled up or down to obtain the requisite volume or concentration of M4N. Formulations containing M4N in other cyclodextrin solutions may be similarly made, such as, for example, by substituting HP-β-CD in the process described above with other cyclodextrins. […]
A 10 mL solution of M4N at a concentration of about 10 mg/mL in 50% HP-β-CD/0.5% HPMC was made as follows. About 10 mL of the 50% HP-β-CD/0.5% HPMC solution were added to a glass beaker containing a stir bar. The beaker was placed on a magnetic plate and the stir bar was set to stir at medium speed. About 100 mg of M4N were slowly added to the 50% HP-β-CD/0.5% HPMC in the center of the beaker with the aid of a spatula. The M4N/50% HP-β-CD/0.5% HPMC mixture was stirred for 24 hr or until all M4N was uniformly suspended without any clumps being present. The M4N/50% HP-β-CD/0.5% HPMC mixture was heated at about 90° C. for about 30 min. (or longer if a larger volume of solution was desired, for example, 1 hr at 90° C. for 500 mL of the M4N/50% HP-β-CD/0.5% HPMC mixture), or longer as needed to ensure complete dissolution of M4N. […] The final M4N/50% HP-β-CD/0.5% HPMC solution was stored at room temperature and was kept protected from light.
A 10 mL solution of M4N at a concentration of about 20 mg/mL in 5% EC (w/v) (the “EC formulation”) was made as follows. About 10 mL of 5% EC formulation, made as described above, were added to a glass beaker containing a stir bar. The beaker was placed on a magnetic plate and the stir bar was set to stir at medium speed, and covered with a round Teflon® cover. About 200 mg of M4N were slowly added to the 5% EC formulation in the center of the beaker with the aid of a spatula to prevent M4N from sticking to the beaker wall. The M4N/EC mixture was stirred for 2 hr or until all M4N had dissolved or was uniformly suspended without any clumps being present. The M4N/EC mixture was heated at about 60° C. for about 30 min. (or longer if a larger volume of solution was desired, for example, 1 hr at 60° C. for 500 mL of the M4N/EC mixture), or longer as needed to ensure complete dissolution of M4N. […] The final M4N/EC solution was stored at room temperature and was kept protected from light.
A 10 mL solution of M4N at a concentration of about 50 mg/mL in sesame oil was made as follows. About 10 mL of sesame oil were added to a glass beaker containing a stir bar. The beaker was placed on a magnetic plate and the stir bar was set to stir at medium speed. About 500 mg of M4N were slowly added to the sesame oil in the center of the beaker with the aid of a spatula to prevent M4N from sticking to the beaker wall. The M4N/sesame oil mixture was stirred for about 2 hr or until all M4N had dissolved or was uniformly suspended without any clump being present. The M4N/sesame oil mixture was heated at about 60° C. for about 30 min. (or longer if a larger volume of solution was desired, for example, 1 hr at 60° C. for 500 mL of the M4N/sesame oil mixture), or longer as need to ensure complete dissolution of M4N. […]

COc1ccc(C[C@@H](C)[C@@H](C)Cc2ccc(OC)c(OC)c2)cc1OC [Formulation M4N, meso-1,4-bis(3,4-dimethoxyphenyl)-2,3-dimethylbutane]
Suspension: Dissolution After Rotation (M4N 60 mg/mL in 50% HP-β-CD, 0.5% CMC)
waxy: Dissolution After Cool-Down (M4N 100 mg/g in 50% Soybean Oil, 50% Beeswax (w/w), cell wraps: waxy solid) | Dissolution After Cool-Down (M4N 200 mg/g in 75% Soybean Oil, 25% Beeswax (w/w), cell wraps: waxy solid) | Dissolution After Cool-Down (M4N 200 mg/g in 90% Olive Oil, 10% Beeswax (w/w), cell wraps: waxy solid) | Dissolution After Cool-Down (M4N 200 mg/g in 90% Soybean Oil, 10% Beeswax (w/w), cell wraps: waxy solid) | Dissolution After Cool-Down (M4N 200 mg/g in 95% Olive Oil, 5% Beeswax (w/w), cell wraps: waxy solid) | Dissolution After Cool-Down (M4N 200 mg/g in 95% Soybean Oil, 5% Beeswax (w/w), cell wraps: waxy solid)
N: Dissolution After Cool-Down (M4N 50 mg/mL in Soybean Oil) | Dissolution After Cool-Down (M4N 52 mg/mL in 40% Peppermint Oil, 40% PEG 400, 20% Glycerol) | Dissolution After Cool-Down (M4N 59 mg/mL in 45% Peppermint Oil, 45% PEG 400, 10% Glycerol) | Dissolution After Cool-Down (M4N 60 mg/mL in 60% Peppermint Oil, 40% PEG 400) | Dissolution After Cool-Down (M4N 60 mg/mL in 80% Olive Oil, 20% Soybean Oil) | Dissolution After Cool-Down (M4N 60 mg/mL in 85% Sesame Oil, 15% Tween ® 20) | Dissolution After Rotation (M4N 100 mg/mL in 2.3% HPMC) | Dissolution After Cool-Down (M4N 100 mg/mL in 5% EC in EtOH) | Dissolution After Rotation (M4N 100 mg/mL in 5% EC in EtOH) | Dissolution After Rotation (M4N 100 mg/mL in 15% α-CD) | Dissolution After Rotation (M4N 100 mg/mL in 30% HP-β-CD) | Dissolution After Rotation (M4N 100 mg/mL in 40% HP-β-CD) | Dissolution After Rotation (M4N 100 mg/mL in 50% HP-β-CD) | Dissolution After Cool-Down (M4N 100 mg/mL in 50% Peppermint Oil, 50% PEG 400) | Dissolution After Cool-Down (M4N 100 mg/mL in Corn Oil) | Dissolution After Cool-Down (M4N 100 mg/mL in Mineral Oil) | Dissolution After Cool-Down (M4N 125 mg/mL in 50% Peppermint Oil, 50% PEG 300) | Dissolution After Cool-Down (M4N 125 mg/mL in 50% Peppermint Oil, 50% PEG 400) | Dissolution After Cool-Down (M4N 125 mg/mL in 50% Peppermint Oil, 50% Tween ® 20) | Dissolution After Cool-Down (M4N 200 mg/mL in Mineral Oil) | Dissolution After Cool-Down (PEG 400 100%, M4N 100 mg/mL, after heating at 60° C.)
N at 80°: Dissolution After Heating at X° C. (M4N 100 mg/mL in 40% HP-β-CD, 80°)
powder: Dissolution After Rotation (M4N 150 mg/g in 84% HP-β-CD, 1% HPMC, Lyophilized) | Dissolution After Rotation (M4N 185 mg/g in 81.5% (w/w) HP-β-CD, Lyophilized)
N at 90°: Dissolution After Heating at X° C. (M4N 100 mg/mL in 15% α-CD, 90°) | Dissolution After Heating at X° C. (M4N 100 mg/mL in 30% HP-β-CD, 90°) | Dissolution After Heating at X° C. (M4N 100 mg/mL in 50% HP-β-CD, 90°)
Y: Dissolution After Cool-Down (M4N 50 mg/mL in Corn Oil) | Dissolution After Cool-Down (M4N 50 mg/mL in Mineral Oil) | Dissolution After Cool-Down (M4N 50 mg/mL in Sesame Oil) | Dissolution After Cool-Down (M4N 60 mg/mL in 33% Peppermint Oil, 33% Tween ® 20, 33% PEG 400) | Dissolution After Cool-Down (M4N 60 mg/mL in 50% Peppermint Oil, 50% PEG 300) | Dissolution After Cool-Down (M4N 60 mg/mL in 50% Peppermint Oil, 50% PEG 400) | Dissolution After Cool-Down (M4N 60 mg/mL in 50% Peppermint Oil, 50% Sesame Oil) | Dissolution After Cool-Down (M4N 60 mg/mL in 50% Peppermint Oil, 50% Tween ® 20) | Dissolution After Cool-Down (M4N 60 mg/mL in 60% Peppermint Oil, 40% PEG 300) | Dissolution After Cool-Down (M4N 60 mg/mL in Corn Oil) | Dissolution After Cool-Down (M4N 60 mg/mL in Peppermint Oil) | Dissolution After Cool-Down (M4N 100 mg/mL in Peppermint Oil) | Dissolution After Cool-Down (M4N 125 mg/mL in Peppermint Oil) | Dissolution After Cool-Down (PEG 300 100%, M4N 25 mg/mL, after heating at 50° C.) | Dissolution After Cool-Down (PEG 400 100%, M4N 25 mg/mL, after heating at 50° C.) | Dissolution After Cool-Down (PEG 400 100%, M4N 30 mg/mL, after heating at 50° C.) | Dissolution After Cool-Down (PEG 400 100%, M4N 40 mg/mL, after heating at 50° C.) | Dissolution After Cool-Down (PEG 400 100%, M4N 50 mg/mL, after heating at 60° C.) | Dissolution After Cool-Down (PEG 400 mono-laurate 100%, M4N 20 mg/mL, after heating at 50° C.) | Dissolution After Cool-Down (PEG 400 mono-laurate 100%, M4N 50 mg/mL, after heating at 50° C.) | Dissolution After Cool-Down (Propylene Glycol 100% (w/v), M4N 1 mg/mL, after heating at 55° C.) | Dissolution After Cool-Down (Propylene Glycol 100% (w/v), M4N 10 mg/mL, after heating at 55° C.) | Dissolution After Cool-Down (Propylene Glycol 100% (w/v), M4N 20 mg/mL, after heating at 55° C.)
Creamy: Dissolution After Cool-Down (M4N 60 mg/mL in 0.4% (v/v) Cinnamaldehyde, 5% (w/v) Beeswax, 94.5% (v/v) Olive Oil, cell wraps: Creamy solid) | Dissolution After Cool-Down (M4N 100 mg/mL in Camillia Oil, cell wraps: Creamy solid) | Dissolution After Cool-Down (M4N 100 mg/mL in Eugenol, Beeswax, Olive Oil, 0.5% (v/v) Eugenol, cell wraps: Creamy solid)
